Test results taken from patent publication US8445006B2, “Biomolecular coating for implants” (Georgia Tech Research Corporation, priority 2006, dated 2013).

Key:
[1] = system: HFN7.1 monoclonal antibody; assay: ELISA with HFN7.1 monoclonal antibody; type: binding; conditions: passively adsorbed ligands, various coating concentrations
Experimental: An ELISA was used to probe for the biological activity of the FNIII7-10 fragment compared to pFN. FNIII7-10 or pFN was adsorbed onto either uncoated or Neutravidin-coated (100 μg/ml) 96-well black U-well Dynex plates at various concentrations for 30 min. Following incubation in blocking buffer (0.25% BSA, 0.1 M EDTA, 2.5% Tween-20, 0.00125% NaN3), HFN7.1 antibody (0.6 μg/ml in blocking buffer) was added for 1 h at 37° C., and, after washing with blocking buffer, surfaces were incubated in alkaline phosphatase-conjugated anti-mouse IgG (0.6 μg/ml) for 1 h at 37° C. Washed surfaces were exposed to 4-methylumbelliferyl phosphate (25 mg/ml in 10 mM diethanolamine, pH 9.5). The resulting fluorescence was quantified using an HTS 7000 Plus plate reader (Perkin Elmer, Foster City, Calif.) at 360 nm excitation and 465 nm emission.

MC3T3-E1 cells = assay: Cell proliferation rate by BrdU incorporation; type: cell-based, murine; conditions: vs RGD-tethered surfaces at low and high peptide surface densities
Experimental: Cells were seeded on surfaces in 10% serum for 16 h, and BrdU (3.1 μg/ml) was added for the last 4 h. After washing with DPBS, samples were fixed in 70% cold ethanol for 10 min, denatured in 4 M HC1 for 20 min, neutralized in 50 mM NaCl in 100 mM Tris-HCI (pH 7.4), washed, and blocked with 5% FBS+1% heat-denatured BSA. Cultures were incubated in anti-BrdU antibody (1:1000) and AlexaFluor488-conjugated anti-mouse IgG (1:200). Nuclei were counter-stained with Hoechst dye (1:10,000). Fluorescent images were used to quantify the number of cells positive for BrdU relative to total cell nuclei using an in-house image analysis routine. Ten representative fields were analyzed per well with multiple wells for each surface condition.

[2] = system: rat femur segmental defect; assay: 8 mm segmental defect in the rat femur, micro-CT bone formation; type: in vivo; conditions: coated PCL scaffolds (20 μg/ml) vs PCL and empty defects; 4 and 12 weeks
Experimental: The ability of GFOGER peptide (SEQ ID NO:1)-coated polymeric scaffolds to heal critical sized defects was examined. […] A 8 mm segmental defect in the rat femur was used to evaluate bone repair. Three experimental groups were evaluated: (i) empty defect controls, (ii) PCL scaffolds, and (iii) GFOGER peptide (SEQ ID NO:1)-coated PCL scaffolds. Polycaprolactone (PCL) is a clinically used polymer widely used in orthopaedic and soft tissue applications. Scaffolds were passively coated with GFOGER peptide (SEQ ID NO:1) (20 μg/ml) as described above. Bone formation was assessed non-invasively via micro-computed tomography (micro-CT) at 4 and 12 weeks. […] No differences in bone formation were observed between PCL and empty defects.

Substance | HFN7.1 binding (biological activity) [1] | cell proliferation rate (BrdU incorporation) (MC3T3-E1 cells) | bone formation (micro-CT) [2]
FNIII7-10: monobiotinylated recombinant fibronectin fragment spanning the 7-10th type III repeats of fibronectin; α5β1 integrin ligand | equivalent functional activity | two-fold increase | 
GGYGGGPC(GPP)5GFOGER(GPP)5GPC [GFOGER peptide] |  |  | enhancement in bone formation
